Experimental data: PubChem BioAssay (NCI)
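Assay format: 96-well plates, 48-hour exposure. The concentration for 50% growth inhibition is given as GI50. TGI: concentration producing complete growth inhibition.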

Assays:
Assay in all cases: growth of human tumour cells (NCI), 48 h
[1] = test system: 786-0 renal
[2] = test system: A498 renal
[3] = test system: A549 NSCLC
[4] = test system: ACHN renal
[5] = test system: BT-549 breast
[6] = test system: CCRF-CEM leukemia
[7] = test system: COLO 205 colon
[8] = test system: DU-145 prostate
[9] = test system: EKVX NSCLC
[10] = test system: HCC-2998 colon
[11] = test system: HCT-116 colon
[12] = test system: HCT-15 colon
[13] = test system: HL-60(TB) leukemia
[14] = test system: HOP-62 NSCLC
[15] = test system: HOP-92 NSCLC
[16] = test system: HS 578T breast
[17] = test system: HT29 colon
[18] = test system: IGROV1 ovarian
[19] = test system: KM12 colon
[20] = test system: LOX IMVI melanoma
[21] = test system: M14 melanoma
[22] = test system: MALME-3M melanoma
[23] = test system: MCF7 breast
[24] = test system: MDA-MB-231 breast
[25] = test system: MDA-MB-435
[26] = test system: MOLT-4 leukemia
[27] = test system: NCI-H226 lung
[28] = test system: NCI-H23 lung
[29] = test system: NCI-H460 lung
[30] = test system: NCI-H522 lung
[31] = test system: NCI/ADR-RES ovarian
[32] = test system: OVCAR-3 ovarian
[33] = test system: OVCAR-4 ovarian
[34] = test system: OVCAR-5 ovarian
[35] = test system: OVCAR-8 ovarian
[36] = test system: PC-3 prostate
[37] = test system: RPMI-8226 leukemia
[38] = test system: RXF 393 renal
[39] = test system: SF-268 CNS
[40] = test system: SF-295 CNS
[41] = test system: SF-539 CNS
[42] = test system: SK-MEL-2 melanoma
[43] = test system: SK-MEL-28 melanoma
[44] = test system: SK-MEL-5 melanoma
[45] = test system: SK-OV-3 ovarian
[46] = test system: SN12C renal
[47] = test system: SNB-19 CNS
[48] = test system: SNB-75 CNS
[49] = test system: SR leukemia
[50] = test system: SW-620 colon
[51] = test system: T-47D breast
[52] = test system: TK-10 renal
[53] = test system: U251 CNS
[54] = test system: UACC-257 melanoma
[55] = test system: UACC-62 melanoma
[56] = test system: UO-31 renal
[57] = test system: K-562 leukemia

COc1ccc(-n2c(-c3ccc(NC(=O)CCCl)cc3)nnc2-c2cc(OC)c(OC)c(OC)c2)cc1
GI50 [1]: 12.5 µM
TGI [1]: > 14.3 µM
GI50 [2]: 3.82 µM
TGI [2]: 12.8 µM
GI50 [3]: 3.89 µM
TGI [3]: 11.2 µM
GI50 [4]: 2.21 µM
TGI [4]: 8.4 µM
GI50 [5]: 3.14 µM
TGI [5]: 13.8 µM
GI50 [6]: 4.53 µM
TGI [6]: > 14.3 µM
GI50 [7]: 2.02 µM
TGI [7]: 4.75 µM
GI50 [8]: 2.77 µM
TGI [8]: 8.67 µM
GI50 [9]: 3 µM
TGI [9]: > 14.3 µM
GI50 [10]: 3.05 µM
TGI [10]: 7.07 µM
GI50 [11]: 2.81 µM
TGI [11]: 8.54 µM
GI50 [12]: 3.68 µM
TGI [12]: > 14.3 µM
GI50 [13]: 1.9 µM
TGI [13]: 6.02 µM
GI50 [14]: 3.49 µM
TGI [14]: 13.4 µM
GI50 [15]: 4.1 µM
TGI [15]: > 14.3 µM
GI50 [16]: 3.89 µM
TGI [16]: 12.6 µM
GI50 [17]: 3.03 µM
TGI [17]: 11.2 µM
GI50 [18]: 2.9 µM
TGI [18]: > 14.3 µM
GI50 [19]: 2.35 µM
TGI [19]: 7.6 µM
GI50 [20]: 4.28 µM
TGI [20]: > 14.3 µM
GI50 [21]: 4.27 µM
TGI [21]: > 14.3 µM
GI50 [22]: 4 µM
TGI [22]: > 14.3 µM
GI50 [23]: 3.15 µM
TGI [23]: > 14.3 µM
GI50 [24]: 3.56 µM
TGI [24]: > 14.3 µM
GI50 [25]: 4.4 µM
TGI [25]: > 14.3 µM
GI50 [26]: 3.4 µM
TGI [26]: 10.6 µM
GI50 [27]: 10.8 µM
TGI [27]: > 14.3 µM
GI50 [28]: 3.66 µM
TGI [28]: > 14.3 µM
GI50 [29]: 2.5 µM
TGI [29]: 7.33 µM
GI50 [30]: 4.14 µM
TGI [30]: > 14.3 µM
GI50 [31]: 4.55 µM
TGI [31]: > 14.3 µM
GI50 [32]: 2.58 µM
TGI [32]: 7.78 µM
GI50 [33]: 4.1 µM
TGI [33]: > 14.3 µM
GI50 [34]: 6.85 µM
TGI [34]: > 14.3 µM
GI50 [35]: 7.87 µM
TGI [35]: > 14.3 µM
GI50 [36]: 4.45 µM
TGI [36]: > 14.3 µM
GI50 [37]: 2.85 µM
TGI [37]: 8.49 µM
GI50 [38]: 2.44 µM
TGI [38]: 5.02 µM
GI50 [39]: 4.09 µM
TGI [39]: > 14.3 µM
GI50 [40]: 5.02 µM
TGI [40]: > 14.3 µM
GI50 [41]: 3.04 µM
TGI [41]: 10.3 µM
GI50 [42]: 3.01 µM
TGI [42]: 7.16 µM
GI50 [43]: 3.56 µM
TGI [43]: 14 µM
GI50 [44]: 3.46 µM
TGI [44]: 10.3 µM
GI50 [45]: 4.34 µM
TGI [45]: > 14.3 µM
GI50 [46]: 7.33 µM
TGI [46]: > 14.3 µM
GI50 [47]: 4.33 µM
TGI [47]: > 14.3 µM
GI50 [48]: 3.46 µM
TGI [48]: > 14.3 µM
GI50 [49]: 3.12 µM
TGI [49]: 12.7 µM
GI50 [50]: 4.55 µM
TGI [50]: > 14.3 µM
GI50 [51]: 3.01 µM
TGI [51]: 14 µM
GI50 [52]: 4.97 µM
TGI [52]: 11.9 µM
GI50 [53]: 3.69 µM
TGI [53]: 13.5 µM
GI50 [54]: 6.23 µM
TGI [54]: > 14.3 µM
GI50 [55]: 2.54 µM
TGI [55]: 6.92 µM
GI50 [56]: 1.94 µM
TGI [56]: 4.37 µM

CCCCn1c(C)c(C)c2c1NN=C(C#N)S2(=O)=O
TGI [1]: > 100 µM
TGI [3]: > 100 µM
TGI [4]: > 100 µM
TGI [5]: > 100 µM
TGI [7]: > 100 µM
TGI [8]: > 100 µM
TGI [9]: > 100 µM
TGI [10]: > 100 µM
TGI [11]: > 100 µM
TGI [12]: > 100 µM
TGI [14]: > 100 µM
TGI [16]: > 100 µM
TGI [17]: > 100 µM
TGI [18]: > 100 µM
TGI [57]: > 100 µM
TGI [19]: > 100 µM
TGI [20]: > 100 µM
TGI [21]: > 100 µM
TGI [22]: > 100 µM
TGI [23]: > 100 µM
TGI [24]: > 100 µM
TGI [25]: > 100 µM
TGI [26]: > 100 µM
TGI [28]: > 100 µM
TGI [29]: > 100 µM
TGI [30]: > 100 µM
TGI [31]: > 100 µM
TGI [32]: > 100 µM
TGI [33]: > 100 µM
TGI [34]: > 100 µM
TGI [35]: > 100 µM
TGI [36]: > 100 µM
TGI [37]: > 100 µM
TGI [39]: > 100 µM
TGI [41]: > 100 µM
TGI [42]: > 100 µM
TGI [43]: > 100 µM
TGI [44]: > 100 µM
TGI [45]: > 100 µM
TGI [46]: > 100 µM
TGI [47]: > 100 µM
TGI [48]: > 100 µM
TGI [49]: > 100 µM
TGI [50]: > 100 µM
TGI [51]: > 100 µM
TGI [52]: > 100 µM
TGI [53]: > 100 µM
TGI [54]: > 100 µM
TGI [55]: > 100 µM
TGI [56]: > 100 µM
